Reference: patent US9938240B2, “Fluorinated derivatives of 3-hydroxypyridin-4-ones” (Apotex Technologies Inc., priority 2009, dated 2018)
One block for each molecule: values may come before it.

How the values were obtained:
[1] = tested on: SH-SY5Y human neuroblastoma cells; conditions: for CC2 (cytotoxic concentration): H2O2-treated cells, viability below 80%; for CC1 (cytotoxic concentration): absence of H2O2, viability below 80%
Text: Hydrogen peroxide (H2O2) is a major ROS (reactive oxidative species), which causes oxidative stress, and can induce apoptosis in many different cell types. One of the CNS drug design strategies is to use compounds with antioxidant properties as a possible treatment of both acute and chronic neurodegenerative diseases (Kang et al. Bioorganic & Medicinal Chemistry Letters, 2004, 14, 2261-2264). This involves testing the compounds of this invention for their protective effect against oxidative stress-induced cell death in SH-SY5Y human neuroblastoma cells. SH-SY5Y human neuroblastoma cells were cultured in DMEM (ATCC)/F12 (Cellgro) with 10% FBS. The cells were plated at 30,000 cells/cm^2 and grown for 1 day in the regular culture media prior to compound addition. Cells were routinely treated with the test compound, at a pre-determined range of concentrations, in the presence or absence of 50 μM hydrogen peroxide in a basal medium containing no FBS for 16-22 h. Cell viability was then measured using the routine MTT method (Mosmann, T., Rapid Colorimetric Assay for Cellular Growth and Survival: Application to Proliferation and Cytotoxicity Assays”. J. Immunol. Meth. 1983, 65, 55-63).
For data analysis, cell viability relative to control not treated with either H2O2 or the test compound, was plotted against the compound concentration. […] Cytotoxicity of the test compound was assessed in the absence of hydrogen peroxide.

[2] = tested on: human neuroblastoma MC-65 cells; assay: cells; conditions: for EC100 / minimal effective concentration: Homo sapiens, MC65, 48 h; for EC100: read-out: EC100 (maximum effective concentration); for minimal effective concentration: read-out: TH (threshold protective concentration); for CC2 (cytotoxic concentration): MC-65, cultured without tetracycline; for CC2 (cytotoxic concentration) / CC1 (cytotoxic concentration): viability below 80%; for CC1 (cytotoxic concentration): MC-65, presence of TET
Experimental: In this assay, human neuroblastoma cells (MC-65 cells) are genetically engineered to conditionally express amyloid β peptide (Aβ). The Aβ production is suppressed by tetracycline (TET+) presence in culture medium, and its production is activated when TET is withdrawn (TET−). The activation of Aβ production results in cell death “MC-65 suicide”.
Protective effect of compounds against edogenously produced amyloid beta (Aβ) was assessed in human neuroblastoma MC-65 cells. MC-65 cells have been stably transformed to conditionally express high levels of a partial amyloid precursor (AP) fusion protein (Bryce Sopher et al., Brain Res Mol Brain Res. 1994, 207-17.). This protein is further proteolitically processed in the cells to form a set of AP-derived Aβ peptides. […] Activity of the promoter is tightly regulated by the presence of the antibiotic tetracycline (TET) in the culture medium. In the presence of TET (TET+), the promoter is in the basal state and no amyloid beta peptide is synthesized. In the absence of TET (TET−) the promoter is in induced state, resulting in the accumulation of Aβ peptides in the cells, degenerative changes in cell morphology and decreased survival.
Transfected human neuroblastoma cells (MC-65) were cultured in DMEM (ATCC) supplemented with non-essential amino acids and 10% FBS (VWR) in the presence of TET (1 μg/mL). For the experiment, the cells were plated at 35,000 cells/cm^2 and grown for 1 day in the regular culture media prior to compound addition. On the day of the assay, culture supernatant was removed from the wells and cells were thoroughly washed once with the compound incubation matrix containing no FBS and no TET. MC-65 cells were treated with a test compound at pre-determined range of concentrations in a basal medium containing no FBS and in the absence or presence of 1 μg/mL TET for approximately 48 h. Cell viability was then measured using the MTT method.
For data analysis, cell viabilities relative to the control not treated with a test compound and maintained in the presence of TET were plotted against the compound concentration. […] Cytotoxicity of the test compound was assessed in the cells maintained in the presence of TET.

[3] = Oral cassette dosing PK/BBB studies; format: in vivo, male Sprague-Dawley rats; conditions: oral cassette dosing, male Sprague-Dawley rats; for AUC brain* / AUC: AUC normalized to 1 mg/kg dose; for Kp / AUC: rat; for Kp: brain and plasma, read-out: AUC brain/AUC plasma; for AUC: plasma
Experimental: In-vivo pharmacokinetic (PK) and blood brain barrier (BBB) studies were conducted in male Sprague-Dawley rats using cassette dosing via oral administration. […] No. 15, pp. 652-658.

[4] = Distribution coefficient determination, D7.4 (1-octanol / K2HPO4 buffer); format: physicochemical; conditions: 1-octanol / K2HPO4 buffer 50 mM pH 7.4; for logD: read-out: Log D7.4
Experimental: K2HPO4 buffer (50 mM, pH=7.4) and 1-octanol were used as the aqueous phase and the organic phase, respectively. The K2HPO4 buffer and 1-octanol were mixed, and pre-saturated with each other before use.
In a typical experiment, an aqueous solution of Apo6995 (3-hydroxy-2-methyl-1-(2,2,2-trifluoroethyl)pyridin-4(1H)-one) was prepared by weighing out 3 mg of the compound into a 10-mL test-tube. It was then mixed with K2HPO4 buffer (2 mL) and sonicated for 30 minutes with frequent vortexing. The solution was then filtered through HPLC syringe filter (4 mm PVDF syringe filter 0.45 μM) to obtain the aqueous solution.
One mL of this aqueous solution was pipetted out into another 10-mL test-tube and mixed with 1 mL of 1-octanol. The mixture was then vortexed for 1 hour. The solution was centrifuged at 2000 rpm for 10 minutes. A small amount of the lower aqueous layer was carefully pipetted out and analyzed by HPLC to obtain the peak height (HF). The distribution coefficient, D7.4, was calculated using the following equation: D7.4=(HI−HF)/HF.

Structure (SMILES): Cn1ccc(=O)c(O)c1CC(F)F [Apo7080, 2-(2,2-difluoroethyl)-3-hydroxy-1-methylpyridin-4(1H)-one]
CC2 (cytotoxic concentration) [1]: >640 µM
CC1 (cytotoxic concentration) [1]: 40 µM
EC100 [2]: 10 µM
minimal effective concentration [2]: 0.1 µM
CC2 (cytotoxic concentration) [2]: 40 µM
CC1 (cytotoxic concentration) [2]: 40 µM
AUC brain* [3]: 700 ng·h/mL
Kp [3]: 0.76
AUC [3]: 920 ng·h/mL

Structure (SMILES): CN(C)C(c1c(O)c(=O)c(Cl)cn1C)C(F)(F)F (centres unmarked) [Apo7060, 5-chloro-2-[1-(dimethylamino)-2,2,2-trifluoroethyl]-3-hydroxy-1-methylpyridin-4(1H)-one]
CC2 (cytotoxic concentration) [1]: >640 µM
CC1 (cytotoxic concentration) [1]: 80 µM
EC100 [2]: 10 µM
minimal effective concentration [2]: 1 µM
CC2 (cytotoxic concentration) [2]: 20 µM
CC1 (cytotoxic concentration) [2]: 40 µM
D7.4 [4]: 4.93
logD [4]: 0.69

Structure (SMILES): Cc1c(O)c(=O)ccn1CC(F)(F)F [Apo6995, 3-hydroxy-2-methyl-1-(2,2,2-trifluoroethyl)pyridin-4(1H)-one]
CC2 (cytotoxic concentration) [1]: 320 µM
CC1 (cytotoxic concentration) [1]: 320 µM
EC100 [2]: 20 µM
minimal effective concentration [2]: 0.1 µM
CC2 (cytotoxic concentration) [2]: 80 µM
CC1 (cytotoxic concentration) [2]: 80 µM
D7.4 [4]: 2.51
logD [4]: 0.4
AUC brain* [3]: 300 ng·h/mL
Kp [3]: 1.2
AUC [3]: 260 ng·h/mL

Structure (SMILES): Cc1cc(=O)c(O)c(CN(C)C)n1CC(F)(F)F [Apo7065, 2-[(dimethylamino)methyl]-3-hydroxy-6-methyl-1-(2,2,2-trifluoroethyl)pyridin-4(1H)-one]
CC2 (cytotoxic concentration) [1]: >640 µM
CC1 (cytotoxic concentration) [1]: 40 µM
D7.4 [4]: 4.93
logD [4]: 0.69

Structure (SMILES): Cn1ccc(=O)c(O)c1C(C(F)F)N1CCN(c2ccccn2)CC1 (centres unmarked) [Apo7316, 2-(2,2-difluoro-1-(4-(pyridin-2-yl)piperazin-1-yl)ethyl)-3-hydroxy-1-methylpyridin-4(1H)-one]
CC2 (cytotoxic concentration) [1]: 320 µM
CC1 (cytotoxic concentration) [1]: 320 µM
EC100 [2]: 10 µM
minimal effective concentration [2]: 1 µM
CC2 (cytotoxic concentration) [2]: 20 µM
CC1 (cytotoxic concentration) [2]: 10 µM

Structure (SMILES): Cn1ccc(=O)c(O)c1C(NC1CC1)C(F)(F)F (centres unmarked) [Apo7074, 2-[1-(cyclopropylamino)-2,2,2-trifluoroethyl]-3-hydroxy-1-methylpyridin-4(1H)-one]
CC2 (cytotoxic concentration) [1]: >640 µM
CC1 (cytotoxic concentration) [1]: 20 µM
EC100 [2]: 10 µM
minimal effective concentration [2]: 0.1 µM
CC2 (cytotoxic concentration) [2]: 20 µM
CC1 (cytotoxic concentration) [2]: 10 µM

Structure (SMILES): Cn1ccc(=O)c(O)c1C(N1CCCCC1)C(F)(F)F (centres unmarked) [Apo7058, 3-hydroxy-1-methyl-2-[2,2,2-trifluoro-1-(piperidin-1-yl)ethyl]pyridin-4(1H)-one]
CC2 (cytotoxic concentration) [1]: >640 µM
CC1 (cytotoxic concentration) [1]: 20 µM
EC100 [2]: 10 µM
minimal effective concentration [2]: 1 µM
CC2 (cytotoxic concentration) [2]: 80 µM
CC1 (cytotoxic concentration) [2]: 10 µM

Structure (SMILES): Cc1cc(=O)c(O)c(C(N2CCN(c3ccccc3)CC2)C(F)(F)F)n1C (centres unmarked) [Apo7335, 3-hydroxy-1,6-dimethyl-2-(2,2,2-trifluoro-1-(4-phenylpiperazin-1-yl)ethyl)pyridin-4(1H)-one]
CC2 (cytotoxic concentration) [1]: 80 µM
CC1 (cytotoxic concentration) [1]: 80 µM
EC100 [2]: 10 µM
minimal effective concentration [2]: 1 µM
CC2 (cytotoxic concentration) [2]: 20 µM
CC1 (cytotoxic concentration) [2]: 20 µM

Structure (SMILES): Cc1c(Cl)c(=O)c(O)c(CC(F)(F)F)n1C [Apo7040, 3-chloro-5-hydroxy-1,2-dimethyl-6-(2,2,2-trifluoroethyl)pyridin-4(1H)-one]
CC2 (cytotoxic concentration) [1]: >640 µM
CC1 (cytotoxic concentration) [1]: 160 µM
EC100 [2]: 40 µM
minimal effective concentration [2]: 1 µM
CC2 (cytotoxic concentration) [2]: 80 µM
CC1 (cytotoxic concentration) [2]: 40 µM
D7.4 [4]: 8.76
logD [4]: 0.94

Structure (SMILES): Cc1c(O)c(=O)c(C(N2CCCCC2)C(F)(F)F)cn1C (centres unmarked) [Apo7054, 3-Hydroxy-1,2-dimethyl-5-[2,2,2-trifluoro-1-(piperidin-1-yl)ethyl]pyridin-4(1H)-one]
CC2 (cytotoxic concentration) [1]: >640 µM
CC1 (cytotoxic concentration) [1]: 5 µM
EC100 [2]: 1 µM
minimal effective concentration [2]: 0.1 µM
CC2 (cytotoxic concentration) [2]: 20 µM
CC1 (cytotoxic concentration) [2]: 20 µM

Structure (SMILES): Cn1cc(Cl)c(=O)c(O)c1CC(F)(F)F [Apo7066, 5-chloro-3-hydroxy-1-methyl-2-(2,2,2-trifluoroethyl)pyridin-4(1H)-one]
CC2 (cytotoxic concentration) [1]: 160 µM
CC1 (cytotoxic concentration) [1]: 160 µM
EC100 [2]: 10 µM
minimal effective concentration [2]: 0.1 µM
CC2 (cytotoxic concentration) [2]: 80 µM
CC1 (cytotoxic concentration) [2]: 80 µM
D7.4 [4]: 4.69
logD [4]: 0.67

Structure (SMILES): Cc1c(O)c(=O)ccn1CC(F)F [Apo7069, 1-(2,2-difluoroethyl)-3-hydroxy-2-methylpyridin-4(1H)-one]
CC2 (cytotoxic concentration) [1]: >640 µM
CC1 (cytotoxic concentration) [1]: 80 µM
EC100 [2]: 40 µM
minimal effective concentration [2]: 0.1 µM
CC2 (cytotoxic concentration) [2]: 80 µM
CC1 (cytotoxic concentration) [2]: 80 µM
D7.4 [4]: 0.66
Log D7.4 [4]: −0.18

Structure (SMILES): Cc1cc(=O)c(O)c(CN(C)C)n1CC(F)F [Apo7083, 1-(2,2-difluoroethyl)-2-[(dimethylamino)methyl]-3-hydroxy-6-methylpyridin-4(1H)-one]
EC100 [2]: 10 µM
minimal effective concentration [2]: 0.1 µM
CC2 (cytotoxic concentration) [2]: 40 µM
CC1 (cytotoxic concentration) [2]: 40 µM
D7.4 [4]: 1.70
logD [4]: 0.23

AUC brain* [3]: 42 ng·h/mL
Kp [3]: 1.5
AUC [3]: 28 ng·h/mL
Structure (SMILES): Oc1c(I)cc(Cl)c2cccnc12 [Clioquinol, reference compound]

Structure (SMILES): C[C@H](NCc1cc(=O)c(O)c(C(O)C(F)(F)F)n1C)C(=O)O (stereo partly drawn) [Apo7032, N-{[5-hydroxy-1-methyl-4-oxo-6-(2,2,2-trifluoro-1-hydroxyethyl)-1,4-dihydropyridin-2-yl]methyl}-L-alanine]
CC2 (cytotoxic concentration) [1]: >640 µM
CC1 (cytotoxic concentration) [1]: 10 µM
EC100 [2]: 10 µM
minimal effective concentration [2]: 0.1 µM
CC2 (cytotoxic concentration) [2]: 40 µM
CC1 (cytotoxic concentration) [2]: 80 µM

Structure (SMILES): Cc1cc(=O)c(O)cn1CC(F)(F)F [Apo6994, 5-hydroxy-2-methyl-1-(2,2,2-trifluoroethyl)pyridin-4(1H)-one]
CC2 (cytotoxic concentration) [1]: 640 µM
CC1 (cytotoxic concentration) [1]: 160 µM
EC100 [2]: 10 µM
minimal effective concentration [2]: 1 µM
CC2 (cytotoxic concentration) [2]: >80 µM
CC1 (cytotoxic concentration) [2]: >80 µM
